How the values were obtained:
[1] = target: JAK3 (Homo sapiens (Human), UniProt P52333); test: Biochemical JAK3 kinase assay (LanthaScreen); details: for JAK3 (pKi)-JAK1 (pKi): selectivity JAK3 over JAK1, difference of pKi
In short: (§1)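 GST-JAK + GFP-STAT1 peptide, HEPES pH 7.5/MgCl2/EGTA/Brij-35 buffer; cpd preincubation 1 h RT; ATP start, 1 h RT; stop with 10 mM EDTA + 2 nM Tb-anti-pSTAT1; TR-FRET 520/495. 4-parameter IC50 → pKi (Cheng-Prusoff).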

[2] = target: Tyk2 (Homo sapiens (Human), UniProt P29597); test: Biochemical Tyk2 kinase assay (LanthaScreen)
In short: as §1

[3] = system: IL-2 stimulated STAT5 phosphorylation in Tall-1 human T cell line (JAK3); test: Cellular JAK3 potency assay: inhibition of IL-2 stimulated pSTAT5 in Tall-1 T cells; type: cell-based; details: IL-2 stimulated pSTAT5, Tall-1 T cells
In short: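 Tall-1 cells, 45,000 per well, preincubated 1 hour with compound at 37 °C, then stimulated 30 minutes with IL-2 at 300 ng/ml final. pSTAT5 (Tyr694/699) in lysates quantified by AlphaLISA SureFire Ultra. pIC50 derived from inhibition curves, given as mean with SD.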

[4] = target: JAK2 (Homo sapiens (Human), UniProt O60674); test: Biochemical JAK2 kinase assay (LanthaScreen)
In short: as §1

[5] = target: JAK1 (Homo sapiens (Human), UniProt P23458); test: Biochemical JAK1 kinase assay (LanthaScreen)
In short: as §1

Tyk2, sequence (P29597 whole entry): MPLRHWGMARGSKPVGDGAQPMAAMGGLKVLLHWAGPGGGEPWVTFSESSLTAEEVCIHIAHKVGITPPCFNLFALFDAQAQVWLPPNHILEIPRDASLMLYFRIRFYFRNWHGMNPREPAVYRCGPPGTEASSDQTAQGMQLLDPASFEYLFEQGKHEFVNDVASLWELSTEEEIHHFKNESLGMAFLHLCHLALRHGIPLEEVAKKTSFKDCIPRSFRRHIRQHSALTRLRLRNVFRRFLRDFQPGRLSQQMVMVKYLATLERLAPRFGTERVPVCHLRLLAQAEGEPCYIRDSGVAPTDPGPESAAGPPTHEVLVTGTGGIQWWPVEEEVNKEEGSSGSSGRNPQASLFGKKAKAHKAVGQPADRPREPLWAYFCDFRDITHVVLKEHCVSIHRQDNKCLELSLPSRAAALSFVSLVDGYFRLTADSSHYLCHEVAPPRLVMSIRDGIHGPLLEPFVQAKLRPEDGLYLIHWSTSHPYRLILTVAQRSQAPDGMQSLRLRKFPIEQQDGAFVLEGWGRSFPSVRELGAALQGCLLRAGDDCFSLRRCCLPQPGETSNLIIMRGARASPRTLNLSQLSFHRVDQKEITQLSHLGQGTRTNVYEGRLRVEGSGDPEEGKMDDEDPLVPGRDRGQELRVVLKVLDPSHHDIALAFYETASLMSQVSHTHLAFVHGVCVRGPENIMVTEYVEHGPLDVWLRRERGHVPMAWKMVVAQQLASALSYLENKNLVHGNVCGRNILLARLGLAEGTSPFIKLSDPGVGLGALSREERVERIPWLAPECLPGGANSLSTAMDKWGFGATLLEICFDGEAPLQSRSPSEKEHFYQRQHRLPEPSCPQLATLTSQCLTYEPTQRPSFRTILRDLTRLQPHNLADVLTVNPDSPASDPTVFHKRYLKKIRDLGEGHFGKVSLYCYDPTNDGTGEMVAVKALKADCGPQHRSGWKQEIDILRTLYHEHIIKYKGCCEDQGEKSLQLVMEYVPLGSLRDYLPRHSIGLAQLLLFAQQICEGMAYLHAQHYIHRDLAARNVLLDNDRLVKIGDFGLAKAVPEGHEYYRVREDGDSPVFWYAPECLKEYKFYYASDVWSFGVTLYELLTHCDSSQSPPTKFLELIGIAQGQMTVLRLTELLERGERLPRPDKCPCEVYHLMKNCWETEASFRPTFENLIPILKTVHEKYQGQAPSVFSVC
JAK1, sequence (P23458 whole entry): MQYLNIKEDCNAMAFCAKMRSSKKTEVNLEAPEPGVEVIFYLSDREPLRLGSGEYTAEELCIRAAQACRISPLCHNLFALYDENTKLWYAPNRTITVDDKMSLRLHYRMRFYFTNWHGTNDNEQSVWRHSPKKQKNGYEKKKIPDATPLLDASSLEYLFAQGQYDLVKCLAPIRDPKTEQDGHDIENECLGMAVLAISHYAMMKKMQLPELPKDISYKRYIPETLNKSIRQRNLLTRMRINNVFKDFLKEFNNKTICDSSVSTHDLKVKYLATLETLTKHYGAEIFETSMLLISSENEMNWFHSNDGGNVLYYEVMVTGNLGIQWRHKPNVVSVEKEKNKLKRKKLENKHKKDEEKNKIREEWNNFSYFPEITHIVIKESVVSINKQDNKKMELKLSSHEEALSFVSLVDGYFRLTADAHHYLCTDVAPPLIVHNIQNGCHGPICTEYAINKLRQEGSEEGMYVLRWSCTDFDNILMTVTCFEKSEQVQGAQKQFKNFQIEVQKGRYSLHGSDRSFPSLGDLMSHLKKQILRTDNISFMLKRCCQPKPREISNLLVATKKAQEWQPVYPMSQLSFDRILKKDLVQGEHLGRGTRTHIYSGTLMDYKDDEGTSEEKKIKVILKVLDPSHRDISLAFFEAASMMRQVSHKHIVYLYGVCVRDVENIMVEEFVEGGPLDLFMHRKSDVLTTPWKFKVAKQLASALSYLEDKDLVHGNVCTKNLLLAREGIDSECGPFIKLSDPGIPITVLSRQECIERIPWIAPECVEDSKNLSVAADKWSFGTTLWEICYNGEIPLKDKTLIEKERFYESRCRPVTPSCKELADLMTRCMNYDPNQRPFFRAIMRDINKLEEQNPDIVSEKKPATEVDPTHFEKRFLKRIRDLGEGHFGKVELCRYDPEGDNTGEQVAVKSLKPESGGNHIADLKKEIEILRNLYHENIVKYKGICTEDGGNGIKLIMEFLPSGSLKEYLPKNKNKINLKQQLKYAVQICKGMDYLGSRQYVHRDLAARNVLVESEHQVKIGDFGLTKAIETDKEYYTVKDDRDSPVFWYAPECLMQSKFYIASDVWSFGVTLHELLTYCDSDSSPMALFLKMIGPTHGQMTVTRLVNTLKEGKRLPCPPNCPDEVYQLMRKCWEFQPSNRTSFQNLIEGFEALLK
JAK3, sequence (P52333 whole entry): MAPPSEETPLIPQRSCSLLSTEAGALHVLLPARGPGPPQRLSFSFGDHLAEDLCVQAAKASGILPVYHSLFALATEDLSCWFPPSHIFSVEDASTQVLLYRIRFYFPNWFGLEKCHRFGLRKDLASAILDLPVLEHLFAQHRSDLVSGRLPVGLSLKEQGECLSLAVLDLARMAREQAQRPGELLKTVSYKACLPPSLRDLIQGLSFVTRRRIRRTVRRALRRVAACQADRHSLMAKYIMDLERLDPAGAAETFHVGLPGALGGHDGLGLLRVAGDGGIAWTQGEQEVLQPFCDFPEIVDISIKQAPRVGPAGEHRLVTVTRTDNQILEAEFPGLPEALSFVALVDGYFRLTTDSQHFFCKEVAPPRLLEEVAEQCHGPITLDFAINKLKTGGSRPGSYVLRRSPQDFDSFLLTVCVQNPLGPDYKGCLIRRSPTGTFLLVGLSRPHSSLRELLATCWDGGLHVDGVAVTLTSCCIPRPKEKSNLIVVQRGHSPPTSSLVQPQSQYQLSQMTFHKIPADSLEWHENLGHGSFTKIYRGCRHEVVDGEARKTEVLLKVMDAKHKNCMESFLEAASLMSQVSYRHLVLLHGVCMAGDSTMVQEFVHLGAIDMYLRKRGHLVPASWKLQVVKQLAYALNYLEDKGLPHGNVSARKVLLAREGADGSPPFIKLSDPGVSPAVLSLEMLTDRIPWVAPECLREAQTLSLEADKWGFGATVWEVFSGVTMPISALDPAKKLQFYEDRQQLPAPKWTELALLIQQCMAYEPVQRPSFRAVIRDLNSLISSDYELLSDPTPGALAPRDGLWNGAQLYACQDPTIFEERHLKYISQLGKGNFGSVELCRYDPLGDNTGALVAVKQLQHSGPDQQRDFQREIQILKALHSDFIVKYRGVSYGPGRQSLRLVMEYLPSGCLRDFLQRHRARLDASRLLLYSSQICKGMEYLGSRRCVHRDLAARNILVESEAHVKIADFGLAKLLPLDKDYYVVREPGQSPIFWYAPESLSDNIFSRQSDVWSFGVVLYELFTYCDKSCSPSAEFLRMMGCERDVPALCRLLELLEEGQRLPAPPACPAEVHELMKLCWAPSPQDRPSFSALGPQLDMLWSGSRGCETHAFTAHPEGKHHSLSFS
JAK2, sequence (O60674 whole entry): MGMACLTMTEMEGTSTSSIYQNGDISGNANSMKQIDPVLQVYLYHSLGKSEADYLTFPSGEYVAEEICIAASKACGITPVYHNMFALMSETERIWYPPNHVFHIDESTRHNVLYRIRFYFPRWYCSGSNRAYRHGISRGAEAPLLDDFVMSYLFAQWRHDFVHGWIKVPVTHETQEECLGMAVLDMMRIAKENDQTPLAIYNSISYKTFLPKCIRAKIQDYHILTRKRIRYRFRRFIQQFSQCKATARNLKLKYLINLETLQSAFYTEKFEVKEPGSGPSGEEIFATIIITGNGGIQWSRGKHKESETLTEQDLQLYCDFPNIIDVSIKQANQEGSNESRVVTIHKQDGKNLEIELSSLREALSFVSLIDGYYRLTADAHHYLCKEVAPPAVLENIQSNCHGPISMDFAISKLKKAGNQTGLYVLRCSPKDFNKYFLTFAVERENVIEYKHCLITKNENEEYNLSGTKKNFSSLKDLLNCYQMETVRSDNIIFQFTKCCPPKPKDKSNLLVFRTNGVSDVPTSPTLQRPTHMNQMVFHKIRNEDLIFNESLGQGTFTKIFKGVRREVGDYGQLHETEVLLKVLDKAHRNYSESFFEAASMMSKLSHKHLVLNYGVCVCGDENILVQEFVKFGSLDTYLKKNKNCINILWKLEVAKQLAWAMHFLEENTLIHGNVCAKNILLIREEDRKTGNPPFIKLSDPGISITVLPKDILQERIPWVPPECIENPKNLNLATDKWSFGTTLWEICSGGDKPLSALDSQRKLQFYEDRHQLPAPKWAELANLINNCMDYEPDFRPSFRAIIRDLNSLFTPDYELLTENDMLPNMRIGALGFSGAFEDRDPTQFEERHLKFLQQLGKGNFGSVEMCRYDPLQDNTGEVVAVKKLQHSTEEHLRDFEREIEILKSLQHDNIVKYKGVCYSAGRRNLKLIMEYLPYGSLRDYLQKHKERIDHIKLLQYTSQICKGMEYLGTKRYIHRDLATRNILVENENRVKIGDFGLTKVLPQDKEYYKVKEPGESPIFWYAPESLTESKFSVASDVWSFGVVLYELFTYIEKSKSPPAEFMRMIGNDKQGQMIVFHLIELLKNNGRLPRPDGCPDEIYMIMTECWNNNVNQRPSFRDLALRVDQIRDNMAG

C=CC(=O)N1CC(CCn2c(=O)ccc3cnc(Nc4cccc(N5CCN(S(=O)(=O)CCOC)CC5)c4)nc32)C1 [Example 122]
JAK 3 (pKi) [1]: B (B represents pKi value between 9 and 10 (Ki between 1 nM and 0.1 nM)) | JAK3 (pKi)-JAK1 (pKi) [1]: A (A represents a value of 3 or above) | Tyk 2 (pKi) [2]: E (E represents a pKi value of 7 or below (Ki of 100 nM or above)) | Tall-1 (pIC50) [3]: B (B represents a pC50 value between 6.7 (included) and 7.5 (IC50 between 200 nM and 32 nM)) | JAK 2 (pKi) [4]: E (E represents a pKi value of 7 or below (Ki of 100 nM or above)) | JAK 1 (pKi) [5]: E (E represents a pKi value of 7 or below (Ki of 100 nM or above))

C=CC(=O)N1CC(CCn2c(=O)ccc3cnc(Nc4cccc(CN5CCN(S(=O)(=O)C6COC6)CC5)c4)nc32)C1 [Example 126]
JAK 3 (pKi) [1]: A (A represents a pKi value≥10 (Ki≤0.1 nM)) | JAK3 (pKi)-JAK1 (pKi) [1]: A (A represents a value of 3 or above) | Tyk 2 (pKi) [2]: E (E represents a pKi value of 7 or below (Ki of 100 nM or above)) | Tall-1 (pIC50) [3]: B (B represents a pC50 value between 6.7 (included) and 7.5 (IC50 between 200 nM and 32 nM)) | JAK 2 (pKi) [4]: E (E represents a pKi value of 7 or below (Ki of 100 nM or above)) | JAK 1 (pKi) [5]: E (E represents a pKi value of 7 or below (Ki of 100 nM or above))

C=CC(=O)N1CC(CCn2c(=O)ccc3cnc(Nc4cccc(N5CCN(S(=O)(=O)CC#N)CC5)c4)nc32)C1 [Example 128]
JAK 3 (pKi) [1]: A (A represents a pKi value≥10 (Ki≤0.1 nM)) | JAK3 (pKi)-JAK1 (pKi) [1]: A (A represents a value of 3 or above) | Tyk 2 (pKi) [2]: E (E represents a pKi value of 7 or below (Ki of 100 nM or above)) | Tall-1 (pIC50) [3]: B (B represents a pC50 value between 6.7 (included) and 7.5 (IC50 between 200 nM and 32 nM)) | JAK 2 (pKi) [4]: E (E represents a pKi value of 7 or below (Ki of 100 nM or above)) | JAK 1 (pKi) [5]: E (E represents a pKi value of 7 or below (Ki of 100 nM or above))

C=CC(=O)N1CC(CCn2c(=O)ccc3cnc(Nc4cccc(N5CCN(S(=O)(=O)C6COC6)CC5)c4)nc32)C1 [Example 129]
JAK 3 (pKi) [1]: A (A represents a pKi value≥10 (Ki≤0.1 nM)) | JAK3 (pKi)-JAK1 (pKi) [1]: A (A represents a value of 3 or above) | Tyk 2 (pKi) [2]: E (E represents a pKi value of 7 or below (Ki of 100 nM or above)) | Tall-1 (pIC50) [3]: B (B represents a pC50 value between 6.7 (included) and 7.5 (IC50 between 200 nM and 32 nM)) | JAK 2 (pKi) [4]: E (E represents a pKi value of 7 or below (Ki of 100 nM or above)) | JAK 1 (pKi) [5]: E (E represents a pKi value of 7 or below (Ki of 100 nM or above))

C=CC(=O)N1CC(CCn2c(=O)ccc3cnc(Nc4cccc(CN5CCN(S(=O)(=O)CCOC)CC5)c4)nc32)C1 [Example 132]
JAK 3 (pKi) [1]: A (A represents a pKi value≥10 (Ki≤0.1 nM)) | JAK3 (pKi)-JAK1 (pKi) [1]: A (A represents a value of 3 or above) | Tyk 2 (pKi) [2]: E (E represents a pKi value of 7 or below (Ki of 100 nM or above)) | Tall-1 (pIC50) [3]: B (B represents a pC50 value between 6.7 (included) and 7.5 (IC50 between 200 nM and 32 nM)) | JAK 2 (pKi) [4]: E (E represents a pKi value of 7 or below (Ki of 100 nM or above)) | JAK 1 (pKi) [5]: E (E represents a pKi value of 7 or below (Ki of 100 nM or above))

C=CC(=O)N1CCN(CCn2c(=O)ccc3cnc(Nc4ccc(N5CCN(C(=O)COC)CC5)cc4)nc32)CC1 [Example 144]
JAK 3 (pKi) [1]: A (A represents a pKi value≥10 (Ki≤0.1 nM)) | JAK3 (pKi)-JAK1 (pKi) [1]: A (A represents a value of 3 or above) | Tyk 2 (pKi) [2]: E (E represents a pKi value of 7 or below (Ki of 100 nM or above)) | Tall-1 (pIC50) [3]: B (B represents a pC50 value between 6.7 (included) and 7.5 (IC50 between 200 nM and 32 nM)) | JAK 2 (pKi) [4]: E (E represents a pKi value of 7 or below (Ki of 100 nM or above)) | JAK 1 (pKi) [5]: E (E represents a pKi value of 7 or below (Ki of 100 nM or above))

C=CC(=O)N1CCN(CCn2c(=O)ccc3cnc(Nc4ccc(N5CCN(C(=O)N(C)C)CC5)cc4)nc32)CC1 [Example 146]
JAK 3 (pKi) [1]: B (B represents pKi value between 9 and 10 (Ki between 1 nM and 0.1 nM)) | JAK3 (pKi)-JAK1 (pKi) [1]: A (A represents a value of 3 or above) | Tyk 2 (pKi) [2]: E (E represents a pKi value of 7 or below (Ki of 100 nM or above)) | Tall-1 (pIC50) [3]: B (B represents a pC50 value between 6.7 (included) and 7.5 (IC50 between 200 nM and 32 nM)) | JAK 2 (pKi) [4]: E (E represents a pKi value of 7 or below (Ki of 100 nM or above)) | JAK 1 (pKi) [5]: E (E represents a pKi value of 7 or below (Ki of 100 nM or above))

C=CC(=O)N1CCN(CCn2c(=O)ccc3cnc(Nc4ccc(N5CCN(S(=O)(=O)CCOC)CC5)cc4)nc32)CC1 [Example 147]
JAK 3 (pKi) [1]: B (B represents pKi value between 9 and 10 (Ki between 1 nM and 0.1 nM)) | JAK3 (pKi)-JAK1 (pKi) [1]: A (A represents a value of 3 or above) | Tyk 2 (pKi) [2]: E (E represents a pKi value of 7 or below (Ki of 100 nM or above)) | Tall-1 (pIC50) [3]: C (C represents a pIC50 value between 6 and 6.7 (IC50 between 1 μM and 200 nM)) | JAK 2 (pKi) [4]: E (E represents a pKi value of 7 or below (Ki of 100 nM or above)) | JAK 1 (pKi) [5]: E (E represents a pKi value of 7 or below (Ki of 100 nM or above))

C=CC(=O)N1CCN(CCn2c(=O)ccc3cnc(Nc4ccc(N5CCN(S(=O)(=O)C6COC6)CC5)cc4)nc32)CC1 [Example 148]
JAK 3 (pKi) [1]: B (B represents pKi value between 9 and 10 (Ki between 1 nM and 0.1 nM)) | JAK3 (pKi)-JAK1 (pKi) [1]: A (A represents a value of 3 or above) | Tyk 2 (pKi) [2]: E (E represents a pKi value of 7 or below (Ki of 100 nM or above)) | Tall-1 (pIC50) [3]: C (C represents a pIC50 value between 6 and 6.7 (IC50 between 1 μM and 200 nM)) | JAK 2 (pKi) [4]: E (E represents a pKi value of 7 or below (Ki of 100 nM or above)) | JAK 1 (pKi) [5]: E (E represents a pKi value of 7 or below (Ki of 100 nM or above))

C=CC(=O)N1CCN(CCn2c(=O)ccc3cnc(Nc4cnn(C)c4)nc32)C2(CC2)C1 [Example 149]
JAK 3 (pKi) [1]: B (B represents pKi value between 9 and 10 (Ki between 1 nM and 0.1 nM)) | JAK3 (pKi)-JAK1 (pKi) [1]: A (A represents a value of 3 or above) | Tyk 2 (pKi) [2]: E (E represents a pKi value of 7 or below (Ki of 100 nM or above)) | Tall-1 (pIC50) [3]: C (C represents a pIC50 value between 6 and 6.7 (IC50 between 1 μM and 200 nM)) | JAK 2 (pKi) [4]: E (E represents a pKi value of 7 or below (Ki of 100 nM or above)) | JAK 1 (pKi) [5]: E (E represents a pKi value of 7 or below (Ki of 100 nM or above))

C=CC(=O)N1CCN(CCn2c(=O)ccc3cnc(Nc4ccc(N5CCN(C(C)=O)CC5)c(F)c4)nc32)CC1 [Example 152]
JAK 3 (pKi) [1]: B (B represents pKi value between 9 and 10 (Ki between 1 nM and 0.1 nM)) | JAK3 (pKi)-JAK1 (pKi) [1]: A (A represents a value of 3 or above) | Tyk 2 (pKi) [2]: E (E represents a pKi value of 7 or below (Ki of 100 nM or above)) | Tall-1 (pIC50) [3]: C (C represents a pIC50 value between 6 and 6.7 (IC50 between 1 μM and 200 nM)) | JAK 2 (pKi) [4]: E (E represents a pKi value of 7 or below (Ki of 100 nM or above)) | JAK 1 (pKi) [5]: E (E represents a pKi value of 7 or below (Ki of 100 nM or above))

C=CC(=O)N1CCN(CCn2c(=O)ccc3cnc(Nc4ccc(N5CCN(C(C)=O)CC5)c(Cl)c4)nc32)CC1 [Example 153]
JAK 3 (pKi) [1]: B (B represents pKi value between 9 and 10 (Ki between 1 nM and 0.1 nM)) | JAK3 (pKi)-JAK1 (pKi) [1]: A (A represents a value of 3 or above) | Tyk 2 (pKi) [2]: E (E represents a pKi value of 7 or below (Ki of 100 nM or above)) | Tall-1 (pIC50) [3]: C (C represents a pIC50 value between 6 and 6.7 (IC50 between 1 μM and 200 nM)) | JAK 2 (pKi) [4]: E (E represents a pKi value of 7 or below (Ki of 100 nM or above)) | JAK 1 (pKi) [5]: E (E represents a pKi value of 7 or below (Ki of 100 nM or above))

C=CC(=O)N1CCN(CCn2c(=O)ccc3cnc(Nc4ccc(N5CCN(C)CC5)c(Cl)c4)nc32)CC1 [Example 154]
JAK 3 (pKi) [1]: B (B represents pKi value between 9 and 10 (Ki between 1 nM and 0.1 nM)) | JAK3 (pKi)-JAK1 (pKi) [1]: A (A represents a value of 3 or above) | Tyk 2 (pKi) [2]: E (E represents a pKi value of 7 or below (Ki of 100 nM or above)) | Tall-1 (pIC50) [3]: B (B represents a pC50 value between 6.7 (included) and 7.5 (IC50 between 200 nM and 32 nM)) | JAK 2 (pKi) [4]: E (E represents a pKi value of 7 or below (Ki of 100 nM or above)) | JAK 1 (pKi) [5]: E (E represents a pKi value of 7 or below (Ki of 100 nM or above))
